From US20230340011A1 (Asteroid Therapeutics, priority 2022, published 2023)

Key:
[1] = target: LXRβ (Homo sapiens (Human), UniProt P55055); assay: In vitro assay LXRβ: PathHunter NHR CHO cells, LXRβ / Steroid Receptor Co-activator Peptide enzyme fragment complementation; type: cell-based; conditions: PathHunter NHR CHO cells, full-length human LXRβ and SRCP, chemiluminescent signal; read-out: LXRβ PPI
In short: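 Co-activator recruitment measured by chemiluminescence after signal generation. The CHO line carries full-length human LXRβ tagged with ProLink and an SRCP–enzyme acceptor fusion in the nucleus; cells sat overnight at 37° C before testing, in charcoal-dextran filtered serum medium with 1% final vehicle.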

[2] = target: SREBP-2 (Homo sapiens (Human), UniProt Q12772); assay: In vitro assay SREBP-2: PathHunter U2OS SREBP-2 Nuclear Translocation Cell Line, U18666A-stimulated; type: cell-based; conditions: PathHunter U2OS SREBP-2 nuclear translocation cells, U18666A 10 μM, overnight (16 hours)

Sequence of LXRβ (P55055 whole entry, the tested form may be a part): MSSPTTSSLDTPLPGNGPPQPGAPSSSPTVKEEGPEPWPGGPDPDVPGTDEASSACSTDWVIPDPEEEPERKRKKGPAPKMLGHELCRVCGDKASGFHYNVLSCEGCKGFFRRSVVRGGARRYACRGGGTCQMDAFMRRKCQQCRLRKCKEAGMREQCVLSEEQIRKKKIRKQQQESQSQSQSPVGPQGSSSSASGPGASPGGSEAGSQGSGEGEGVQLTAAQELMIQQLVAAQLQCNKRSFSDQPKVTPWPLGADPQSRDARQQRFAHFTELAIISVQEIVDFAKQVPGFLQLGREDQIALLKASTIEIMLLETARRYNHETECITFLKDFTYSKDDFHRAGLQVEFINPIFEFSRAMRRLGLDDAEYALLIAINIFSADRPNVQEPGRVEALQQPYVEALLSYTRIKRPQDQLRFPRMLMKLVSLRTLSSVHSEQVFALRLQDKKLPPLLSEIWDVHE

SMILES | EC50 [1] | IC50 [2]
COC(=O)N1CCN(C(=O)CC[C@@H](C)[C@H]2CC[C@H]3[C@@H]4CC=C5C[C@@H](O)CC[C@]5(C)[C@H]4CC[C@]23C)C[C@@H]1C [Example 566, Methyl (2S)-4-[(4R)-4-[(1R,3aS,3bS,7S,9aR,9bS,11aR)-7-hydroxy-9a,11a-dimethyl-1H,2H,3H,3aH,3bH,4H,6H,7H,8H,9H,9aH,9bH,10H,11H,11aH-cyclopenta[a]phenanthren-1-yl]pentanoyl]-2-methylpiperazine-1-carboxylate] | > 10 µM | < 0.25 µM
C[C@H](CCC(=O)N1CCN(c2ccncc2)[C@@H](C)C1)[C@H]1CC[C@H]2[C@@H]3CC=C4C[C@@H](O)CC[C@]4(C)[C@H]3CC[C@]12C [Example 567, (R)-4-((3S,8S,9S,10R,13R,14S,17R)-3-hydroxy-10,13-dimethyl-2,3,4,7,8,9,10,11,12,13,14,15,16,17-tetradecahydro-1H-cyclopenta[a]phenanthren-17-yl)-1-((S)-3-methyl-4-(pyridin-4-yl)piperazin-1-yl)pentan-1-one] | > 10 µM | < 0.25 µM
C[C@H](CCC(=O)N1CCN(C(=O)c2cnccn2)[C@@H](C)C1)[C@H]1CC[C@H]2[C@@H]3CC=C4C[C@@H](O)CC[C@]4(C)[C@H]3CC[C@]12C [Example 568, (R)-4-((3S,8S,9S,10R,13R,14S,17R)-3-hydroxy-10,13-dimethyl-2,3,4,7,8,9,10,11,12,13,14,15,16,17-tetradecahydro-1H-cyclopenta[a]phenanthren-17-yl)-1-((S)-3-methyl-4-(pyrazine-2-carbonyl)piperazin-1-yl)pentan-1-one] | > 10 µM | < 0.25 µM
CCC(=O)N1CCN(C(=O)CC[C@@H](C)[C@H]2CC[C@H]3[C@@H]4CC=C5C[C@@H](O)CC[C@]5(C)[C@H]4CC[C@]23C)C[C@@H]1C [Example 569, (R)-4-((3S,8S,9S,10R,13R,14S,17R)-3-hydroxy-10,13-dimethyl-2,3,4,7,8,9,10,11,12,13,14,15,16,17-tetradecahydro-1H-cyclopenta [a]phenanthren-17-yl)-1-((S)-3-methyl-4-propionylpiperazin-1-yl)pentan-1-one] | > 10 µM | < 0.25 µM
C[C@H](CCC(=O)N1CCN(C(=O)OC2CC2)[C@@H](C)C1)[C@H]1CC[C@H]2[C@@H]3CC=C4C[C@@H](O)CC[C@]4(C)[C@H]3CC[C@]12C [Example 570, Cyclopropyl(S)-4-((R)-4-((3S,8S,9S,10R,13R,14S,17R)-3-hydroxy-10,13-dimethyl-2,3,4,7,8,9,10,11,12,13,14,15,16,17-tetradecahydro-1H-cyclopenta[a]phenanthren-17-yl)pentanoyl)-2-methylpiperazine-1-carboxylate] | > 10 µM | < 0.25 µM
C[C@H](CCC(=O)N1CC[C@H](Oc2ccncc2)[C@@H](C)C1)[C@H]1CC[C@H]2[C@@H]3CC=C4C[C@@H](O)CC[C@]4(C)[C@H]3CC[C@]12C [Example 571, (R)-4-((3S,8S,9S,10R,13R,14S,17R)-3-hydroxy-10,13-dimethyl-2,3,4,7,8,9,10,11,12,13,14,15,16,17-tetradecahydro-1H-cyclopenta[a]phenanthren-17-yl)-1-((3S,4S)-3-methyl-4-(pyridin-4-yloxy)piperidin-1-yl)pentan-1-one] | > 10 µM | < 0.25 µM
C[C@H](CCC(=O)N1CC[C@@H](Oc2ccncc2)[C@@H](C)C1)[C@H]1CC[C@H]2[C@@H]3CC=C4C[C@@H](O)CC[C@]4(C)[C@H]3CC[C@]12C [Example 572, (R)-4-((3S,8S,9S,10R,13R,14S,17R)-3-hydroxy-10,13-dimethyl-2,3,4,7,8,9,10,11,12,13,14,15,16,17-tetradecahydro-1H-cyclopenta[a]phenanthren-17-yl)-1-((3S,4R)-3-methyl-4-(pyridin-4-yloxy)piperidin-1-yl)pentan-1-one] | > 10 µM | < 0.25 µM
C[C@H](CCC(=O)N1CCN(C(=O)N(C)C)[C@@H](C)C1)[C@H]1CC[C@H]2[C@@H]3CC=C4C[C@@H](O)CC[C@]4(C)[C@H]3CC[C@]12C [Example 573, (2S)-4-[(4R)-4-[(1R,3aS,3bS,7S,9aR,9bS,11aR)-7-hydroxy-9a,11a-dimethyl-1H,2H,3H,3aH,3bH,4H,6H,7H,8H,9H,9aH,9bH,10H,11H,11aH-cyclopenta[a]phenanthren-1-yl]pentanoyl]-N,N,2-trimethylpiperazine-1-carboxamide] | > 10 µM | < 0.25 µM
C[C@H](CCC(=O)N1CCN(C(=O)c2cn(C)nn2)[C@@H](C)C1)[C@H]1CC[C@H]2[C@@H]3CC=C4C[C@@H](O)CC[C@]4(C)[C@H]3CC[C@]12C [Example 574, (R)-4-((3S,8S,9S,10R,13R,14S,17R)-3-hydroxy-10,13-dimethyl-2,3,4,7,8,9,10,11,12,13,14,15,16,17-tetradecahydro-1H-cyclopenta[a]phenanthren-17-yl)-1-((S)-3-methyl-4-(1-methyl-1H-1,2,3-triazole-4-carbonyl)piperazin-1-yl)pentan-1-one] | > 10 µM | < 0.25 µM
C[C@H](CCC(=O)N1CCN(c2ccncn2)[C@@H](C)C1)[C@H]1CC[C@H]2[C@@H]3CC=C4C[C@@H](O)CC[C@]4(C)[C@H]3CC[C@]12C [Example 575, (4R)-4-[(1R,3aS,3bS,7S,9aR,9bS,11aR)-7-hydroxy-9a,11a-dimethyl-1H,2H,3H,3aH,3bH,4H,6H,7H,8H,9H,9aH,9bH,10H,11H,11aH-cyclopenta[a]phenanthren-1-yl]-1-[(3S)-3-methyl-4-(pyrimidin-4-yl)piperazin-1-yl]pentan-1-one] | > 10 µM | < 0.25 µM
CC(C)OC(=O)N1CCN(C(=O)CC[C@@H](C)[C@H]2CC[C@H]3[C@@H]4CC=C5C[C@@H](O)CC[C@]5(C)[C@H]4CC[C@]23C)C[C@@H]1C [Example 576, isopropyl(S)-4-((R)-4-((3S,8S,9S,10R,13R,14S,17R)-3-hydroxy-10,13-dimethyl-2,3,4,7,8,9,10,11,12,13,14,15,16,17-tetradecahydro-1H-cyclopenta[a]phenanthren-17-yl)pentanoyl)-2-methylpiperazine-1-carboxylate] | > 10 µM | < 0.25 µM
C[C@H](CCC(=O)N1CCN(C(=O)c2ccncc2)[C@@H](C)C1)[C@H]1CC[C@H]2[C@@H]3CC=C4C[C@@H](O)CC[C@]4(C)[C@H]3CC[C@]12C [Example 577, (R)-4-((3S,8S,9S,10R,13R,14S,17R)-3-hydroxy-10,13-dimethyl-2,3,4,7,8,9,10,11,12,13,14,15,16,17-tetradecahydro-1H-cyclopenta[a]phenanthren-17-yl)-1-((S)-4-isonicotinoyl-3-methylpiperazin-1-yl)pentan-1-one] | > 10 µM | < 0.25 µM
C[C@H](CCC(=O)N1CCN(C(=O)c2cnn(C)c2)C[C@@H]1C)[C@H]1CC[C@H]2[C@@H]3CC=C4C[C@@H](O)CC[C@]4(C)[C@H]3CC[C@]12C [Example 578, (R)-4-((3S,8S,9S,10R,13R,14S,17R)-3-hydroxy-10,13-dimethyl-2,3,4,7,8,9,10,11,12,13,14,15,16,17-tetradecahydro-1H-cyclopenta[a]phenanthren-17-yl)-1-((S)-2-methyl-4-(1-methyl-1H-pyrazole-4-carbonyl)piperazin-1-yl)pentan-1-one] | > 10 µM | < 0.25 µM
